Data from US20220288404A1, “METHODS FOR APPLYING TUMOR TREATING FIELDS IN COMBINATION WITH CANCER TREATING THERAPEUTICS” (THE BOARD OF REGENTS OF THE UNIVERSITY OF TEXAS SYSTEM, priority 2021, published 2022).

Legend:
Assay type in all cases: cell-based
[1] = tested on: 04.03 cells; experiment: Clonogenic cell survival assay, 04.03 cells; details: for CI 2Gy + Olap / CI TTFields + 2Gy + Olap / CI TTFields + Olap: CI>1 synergistic; for surviving fraction: agent as shown in figure
Procedure: (§1) Using certain embodiments disclosed herein, TTFields in combination with various inhibitors and/or radiation treatment (IR) were applied to NSCLC cells or pancreatic cancer cells. For example, a predetermined inhibitor at a predetermined concentration was delivered to NSCLC cells or pancreatic cancer cells, and the cells were immediately exposed to TTFields (e.g., 100-250 kHz and 1-20 V/cm v/cm) for about 24, […], or 72 hours. The predetermined concentration was a cell line specific concentration for optimal target cell killing.
(§2) Olaparib was given concomitant with TTFields. Radiation was given 24, 48 or 72 h after the initiation of TTFields and specific agents. […] Values greater than 1.0 are considered as synergistic, that is, greater than the sum of the individual responses. The following formulas were used for calculating CI: SF=Survival Fraction; CI (TTFields)+(2Gy)=(SF2Gy×SFTTFields)/SF2Gy+TTFields; CI(TTFields)+(Olap)=(SFOlap×SFTTFields)/SFOlap+TTFields; CI (2Gy)+(Olap)=(SF2Gy×SFOlap)/SF2Gy+Olap; and CI (TTFields)+(2Gy)+(Olap)=(SF2Gy×SFOlap×SFTTFields)/SFTTFields+2Gy+Olap. […] Based upon the Highest Single Agent […] approach. The calculation for the Combination Index can be found below.
(§3) FIGS. 4 and 5 depict example effects of TTFields, AZD6738, radiation, and a combination thereof on non-small cell lung cancer cells (NSCLC) and pancreatic cancer cell, respectively. In particular, FIGS. 4 and 5 show TTFields exposure synergistically increases the effects of ATR inhibitor AZD6738 on NSLCL cells (FIG. 4) survival and pancreatic cancer cell (FIG. 5) survival. TTFields were used together with ATR inhibitor AZD6738 and radiation (IR). A synergistic effect was observed when AZD6738 and IR were combined with TTFields using the highest single agent (HSA) approach. The following formulas were used for calculating CI: SF=Survival Fraction; CI (TTFields)+(2Gy)=(SF2Gy×SFTTFields)/SF2Gy+TTFields; CI(TTFields)+(AZD)=(SFAZD×SFTTFields)/SFAZD+TTFields; CI (2Gy)+(AZD)=(SF2Gy×SFAZD)/SF2Gy+AZD; and CI (TTFields)+(2Gy)+(AZD)=(SF2Gy×SFAZD×SFTTFields)/SFTTFields+2Gy+AZD.

[2] = tested on: Panc-1 cells; experiment: Clonogenic cell survival assay, Panc-1 cells; details: for CI 2Gy + Olap / CI TTFields + 2Gy + Olap / CI TTFields + Olap / CI Irino + 2Gy / CI TTFields + Irino / CI TTFields + Irino + 2Gy: CI>1 synergistic; for surviving fraction: agent as shown in figure
Procedure: as §1, §2, §3
(§4) The following formulas are used for calculating the combination Index: SF=Survival Fraction; CI (TTFields)+(2Gy)=(SF2Gy×SFTTFields)/SF2Gy+TTFields; CI(TTFields)+(Irino)=(SFIrino×SFTTFields)/SFIrino+TTFields; CI (2Gy)+(Irino)=(S2Gy×SFIrino)SF2Gy+Irino; and CI (TTFields)+(2Gy)+(Irino)=(SF2Gy×SFIrino×SFTTFields)/SFTTFields+2Gy+Irino.

[3] = tested on: H1299 cells; experiment: Clonogenic cell survival assay, H1299 cells; details: for CI Irino + 2Gy / CI TTFields + Irino / CI TTFields + Irino + 2Gy / CI 5FU + 2Gy / CI TTFields + 5FU / CI TTFields + 5FU + 2Gy: CI>1 synergistic; for surviving fraction: agent as shown in figure
Procedure: as §1, with “killing. Then, the cells were irradiated (at a dose of 2Gy) for less than a minute (e.g., 3.25 Gy/min) and immediately plated for survival.” for “killing.”
as §3, §4

[4] = tested on: H1299 cells; experiment: Clonogenic cell survival assay, H1299 cells; details: 48 h, CI>1 synergistic
[5] = tested on: H157 cells; experiment: Clonogenic cell survival assay, H157 cells; details: for CI Irino + 2Gy / CI TTFields + Irino / CI TTFields + Irino + 2Gy / CI 5FU + 2Gy / CI TTFields + 5FU / CI TTFields + 5FU + 2Gy: CI>1 synergistic; for surviving fraction: agent as shown in figure
Procedure: as §1, with “killing. Then, the cells were irradiated (at a dose of 2Gy) for less than a minute (e.g., 3.25 Gy/min) and immediately plated for survival.” for “killing.”
as §3, §4

[6] = tested on: H157 cells; experiment: Clonogenic cell survival assay, H157 cells; details: 48 h, CI>1 synergistic

Question: What does the source list for O=C(c1cc(Cc2n[nH]c(=O)c3ccccc23)ccc1F)N1CCN(C(=O)C2CC2)CC1 [Olap, Olaparib]?
Answer: effect of combinations of TTFields, agent and/or IR on cell survival [1]: synergistic effects; CI 2Gy + Olap ([1]; 24 h): 1.550; CI TTFields + 2Gy + Olap ([1]; 24 h): 2.863; CI TTFields + Olap ([1]; 24 h): 1.101; CI 2Gy + Olap ([1]; 48 h): 1.582; CI TTFields + 2Gy + Olap ([1]; 48 h): 2.066; CI TTFields + Olap ([1]; 48 h): 0.973; CI 2Gy + Olap ([1]; 72 h): 1.462; CI TTFields + 2Gy + Olap ([1]; 72 h): 3.818; CI TTFields + Olap ([1]; 72 h): 1.042; surviving fraction [1]: significantly reduced; effect of combinations of TTFields, agent and/or IR on cell survival [2]: synergistic effects; CI 2Gy + Olap ([2]; 24 h): 0.890; CI TTFields + 2Gy + Olap ([2]; 24 h): 1.589; CI TTFields + Olap ([2]; 24 h): 1.035; CI 2Gy + Olap ([2]; 48 h): 0.975; CI TTFields + 2Gy + Olap ([2]; 48 h): 1.817; CI TTFields + Olap ([2]; 48 h): 1.209; CI 2Gy + Olap ([2]; 72 h): 1.030; CI TTFields + 2Gy + Olap ([2]; 72 h): 2.028; CI TTFields + Olap ([2]; 72 h): 1.215; surviving fraction [2]: significantly reduced

Question: For CCc1c2c(nc3ccc(OC(=O)N4CCC(N5CCCCC5)CC4)cc13)-c1cc3c(c(=O)n1C2)COC(=O)[C@]3(O)CC [Irino, Irinotecan], which “effect of combinations of TTFields, agent and/or IR on cell survival” value (“effect of combinations of TTFields” for short) [2] is on record?
Answer: synergistic effects

Question: What about the “CI Irino + 2Gy” value ([2]; 24 h) of the same compound?
Answer: 1.022

Question: And the “CI TTFields + Irino” value ([2]; 24 h)?
Answer: 1.082

Question: What about the “CI TTFields + Irino + 2Gy” value ([2]; 24 h) of the same compound?
Answer: 2.360

Question: And the “CI Irino + 2Gy” value ([2]; 48 h)?
Answer: 1.009

Question: What about the “CI TTFields + Irino” value ([2]; 48 h) of the same compound?
Answer: 0.974

Question: And the “CI TTFields + Irino + 2Gy” value ([2]; 48 h)?
Answer: 2.335

Question: And the “CI Irino + 2Gy” value ([2]; 72 h)?
Answer: 1.132

Question: And the “CI TTFields + Irino” value ([2]; 72 h)?
Answer: 1.030

Question: And the “CI TTFields + Irino + 2Gy” value ([2]; 72 h)?
Answer: 4.454

Question: And the surviving fraction [2]?
Answer: significantly reduced

Question: And the “effect of combinations of TTFields” value [3]?
Answer: synergistic effects

Question: And the “CI Irino + 2Gy” value ([3]; 24 h)?
Answer: 1.244

Question: And the “CI TTFields + Irino” value ([3]; 24 h)?
Answer: 1.388

Question: What about the “CI TTFields + Irino + 2Gy” value ([3]; 24 h) of the same compound?
Answer: 2.365

Question: What about the “CI Irino + 2Gy” value ([3]; 48 h) of the same compound?
Answer: 1.012

Question: And the “CI TTFields + Irino + 2Gy” value ([3]; 48 h)?
Answer: 2.130

Question: And the “CI Irino + 2Gy” value ([3]; 72 h)?
Answer: 1.027

Question: And the “CI TTFields + Irino” value ([3]; 72 h)?
Answer: 2.081

Question: And the “CI TTFields + Irino + 2Gy” value ([3]; 72 h)?
Answer: 2.051

Question: And the surviving fraction [3]?
Answer: significantly reduced

Question: And the “CI TTFields + Irino” value [4]?
Answer: 1.821

Question: And the “effect of combinations of TTFields” value [5]?
Answer: synergistic effects

Question: What about the “CI Irino + 2Gy” value ([5]; 24 h) of the same compound?
Answer: 1.064

Question: What about the “CI TTFields + Irino” value ([5]; 24 h) of the same compound?
Answer: 1.483

Question: And the “CI TTFields + Irino + 2Gy” value ([5]; 24 h)?
Answer: 1.763

Question: And the “CI Irino + 2Gy” value ([5]; 48 h)?
Answer: 1.244

Question: What about the “CI TTFields + Irino” value ([5]; 48 h) of the same compound?
Answer: 1.174

Question: And the “CI TTFields + Irino + 2Gy” value ([5]; 48 h)?
Answer: 1.463

Question: What about the “CI Irino + 2Gy” value ([5]; 72 h) of the same compound?
Answer: 1.275

Question: And the “CI TTFields + Irino” value ([5]; 72 h)?
Answer: 1.136

Question: And the “CI TTFields + Irino + 2Gy” value ([5]; 72 h)?
Answer: 2.501

Question: And the surviving fraction [5]?
Answer: significantly reduced

Question: How did the “effect of combinations of TTFields” value [1] turn out when O=c1[nH]cc(F)c(=O)[nH]1 [5FU, 5-Fluorouracil] was run?
Answer: synergistic effects

Question: What about the surviving fraction [1] of the same compound?
Answer: significantly reduced

Question: And the “CI TTFields + 5FU” value [6]?
Answer: 1.252

Question: What about the “effect of combinations of TTFields” value [2] of the same compound?
Answer: synergistic effects

Question: And the surviving fraction [2]?
Answer: significantly reduced

Question: And the “effect of combinations of TTFields” value [3]?
Answer: synergistic effects

Question: What about the “CI 5FU + 2Gy” value ([3]; 24 h) of the same compound?
Answer: 1.254

Question: And the “CI TTFields + 5FU” value ([3]; 24 h)?
Answer: 1.352

Question: What about the “CI TTFields + 5FU + 2Gy” value ([3]; 24 h) of the same compound?
Answer: 1.762

Question: What about the “CI 5FU + 2Gy” value ([3]; 48 h) of the same compound?
Answer: 0.950

Question: And the “CI TTFields + 5FU” value ([3]; 48 h)?
Answer: 1.348

Question: What about the “CI TTFields + 5FU” value ([3]; 72 h) of the same compound?
Answer: 1.326

Question: What about the “CI TTFields + 5FU + 2Gy” value ([3]; 72 h) of the same compound?
Answer: 1.345

Question: What about the surviving fraction [3] of the same compound?
Answer: significantly reduced

Question: What about the “CI TTFields + 5FU + 2Gy” value [4] of the same compound?
Answer: 1.263

Question: What about the “effect of combinations of TTFields” value [5] of the same compound?
Answer: synergistic effects

Question: And the “CI 5FU + 2Gy” value ([5]; 24 h)?
Answer: 0.894

Question: What about the “CI TTFields + 5FU” value ([5]; 24 h) of the same compound?
Answer: 1.559

Question: What about the “CI TTFields + 5FU + 2Gy” value ([5]; 24 h) of the same compound?
Answer: 1.433

Question: And the “CI 5FU + 2Gy” value ([5]; 48 h)?
Answer: 0.962

Question: What about the “CI TTFields + 5FU + 2Gy” value ([5]; 48 h) of the same compound?
Answer: 1.783

Question: And the “CI 5FU + 2Gy” value ([5]; 72 h)?
Answer: 1.125

Question: And the “CI TTFields + 5FU” value ([5]; 72 h)?
Answer: 1.106

Question: And the “CI TTFields + 5FU + 2Gy” value ([5]; 72 h)?
Answer: 1.658

Question: And the surviving fraction [5]?
Answer: significantly reduced
